Assay results taken from US20240355418A1, “MULTIPLEX, TEMPORALLY RESOLVED MOLECULAR SIGNAL RECORDER AND RELATED METHODS” (University of Washington, priority 2021, published 2024).

B1: 12×TAPE-1: 12 repeats of the 14-bp TAPE-1 monomer, SEQ ID NO: 118 (nucleic acid)
DNA: CACCNNNNNNNNGGATGATGGTGAGCACGTGATGGTGAGCACGTGATGGTGAGCACGTGATGGTGAGCACGTGATGGTGAGCACGTGATGGTGAGCACGTGATGGTGAGCACGTGATGGTGAGCACGTGATGGTGAGCACGTGATGGTGAGCACGTGATGGTGAGCACGTGATGGTGAGCACGTGATGGTGAGCGCTTTAAGGC

Experiments:
Assay type in all cases: cell-based
HEK293T cells [1] = assay: DNA Typewriter: sequential prime editing of integrated TAPE-1 arrays, pegRNA pool + PE2, amplicon sequencing; conditions: PE2 and pegRNAs
Text: To test this idea, DNA Tape (“TAPE-1”) was designed by modifying a spacer sequence previously shown to be highly amenable to prime editing by the PE2 enzyme (HEK293 target 3 or HEK3). In TAPE-1, a 3-bp key (GGA) is followed by one tandem array of a 14-bp monomer (TGATGGTGAGCACG) (SEQ ID NO: 57) that includes the PAM sequence (TGG) at positions 4-6. At the 5′-most end of the TAPE-1 array, the key sequence, the first 14-bp monomer, and the first 6 bases of the subsequent 14-bp monomer, collectively comprise an intact 20-bp spacer and PAM (FIG. 1A). A set of 16 pegRNAs was further designed to target TAPE-1, with each pegRNA programming a distinct 5-bp insertion (FIG. 1B). The first 2-bp of the insertion is unique to each of the 16 pegRNAs. The remaining 3-bp of the insertion corresponds to the key (GGA). The inventors reasoned that when a pegRNA/PE2-mediated insertion occurred at the active TAPE-1 site, it would: (1) record the identity of the pegRNA via the 2-bp portion of the insertion; (2) inactivate the current active site by disrupting its sequence; and (3) activate the next monomer along the array, as the newly inserted GGA key, together with the subsequent […], creates an intact 20-bp spacer and PAM. In the next iteration of genome editing, a pegRNA-mediated insertion to the second monomer would be recorded while also moving the type-guide to the third monomer, and then to the fourth, the fifth, and so on (FIG. 1C).
TAPE-1 arrays were synthesized and cloned with varying numbers of monomer units (2×TAPE-1, 3×TAPE-1, 5×TAPE-1), and stably integrated these arrays into the genome of HEK293T cells via the piggyBAC system. The resulting cells were transiently transfected with a pool of plasmids designed to express PE2 (pCMV-PE2-P2A-GFP; Addgene #132776) and sixteen pegRNAs, each programmed to insert an NNGGA barcode to TAPE-1, and harvested them after four days. The TAPE-1 region was PCR-amplified from genomic DNA and sequenced.
For each TAPE-1 array, the sequencing reads were categorized into those in which: (1) no editing occurred; (2) the observed pattern was consistent with sequential, directional editing; or (3) the observed pattern was inconsistent with sequential, directional editing (FIG. 1D-F; Table 1). […] However, within the set of reads showing edits, the data were overwhelmingly consistent with sequential, directional editing. For example, with 2×TAPE-1, the second monomer was edited in 22.8±1.7% of reads in which the first monomer was also edited (FIG. 1D). In contrast, the second monomer was only edited in 0.6% of reads in which the first monomer was not edited. […] Data obtained from 3×TAPE-1 and 5×TAPE-1 were also consistent with sequential genome editing. For example, 98.5% (3×TAPE-1) and 99.0% (5×TAPE-1) of reads that were edited at the second monomer were also edited at the first monomer, while 97.6% (3×TAPE-1) and 98.8% (5×TAPE-1) of reads that were edited at the third monomer were also edited at the first and second monomers (FIG. 1E-1F).
Table 1. Read counts and editing efficiencies for 2×TAPE-1, 3×TAPE-1, and 5×TAPE-1. Sequencing reads were grouped based on the observed editing pattern. For example, reads from 2×TAPE-1 array were categorized into four groups: (A) no edit at either TAPE-1 site (‘OO’); (B) 5-bp insertion at the first TAPE-1 site only (‘XO’); (C) 5-bp insertion at the second TAPE-1 site only (‘OX’); or (D) 5-bp insertions at both TAPE-1 sites (‘XX’). For reads from 5×TAPE-1 array, editing groups were simplified by categorizing directional and iterative editing pattern (OOOOO, XO, XXO, XXXO, XXXXO, and XXXXX) and the erroneous editing patterns (OX, NOX, NNOX, and NNNOX, where N can be either O or X). Editing efficiencies at each site were calculated as the fraction of reads with an edit at the site over the total number of reads in which the site had been activated via insertion of the ‘key’ that completed the spacer sequence. […]

iPE2(+) HEK293T = assay: Monoclonal lineage tracing, TargetBC-5×TAPE-1 arrays, sc-RNA-seq; conditions: after 25 days of editing, Dox
Text: The ordered manner in which edits accrue with DNA Typewriter, the use of a prime editor with a Cas9 nickase to insert one of many possible “symbols” at the type-guide, the predefined sequences and locations of potential edits, and the fact that one-and-only-one monomer is an active type-guide at any given moment, have the potential to address all of these limitations at once. […] First, a HEK293T cell line that expresses doxycycline (Dox)-inducible PE2 (iPE2(+) HEK293T) was constructed. A lentiviral construct was designed and cloned that includes: (1) the 5×TAPE-1 sequence, associated with a random 8-bp barcode region (TargetBC) at its 5′-end; (2) a transcription cassette for the TargetBC-5×TAPE-1 with a reverse transcription capture sequence for enrichment during sc-RNA-seq; and (3) a constitutive pegRNA expression cassette that targets TAPE-1 for a 6-bp insertion (NNNGGA; referred to below as InsertBC; GGA is the key sequence for TAPE-1) (FIG. 4A). Lentiviral transduction of this construct to the cell line at a high multiplicity of infection (MOI) was followed by serial dilution to isolate a monoclonal cell line that grew from 1 cell to ˜1.2M cells via ˜20 doublings over 25 days in the presence of Dox (FIG. 4B; FIG. 10A). After harvesting, sc-RNA-seq was used to recover and sequence multiple TargetBC-5×TAPE-1 arrays from each of ˜12,000 cells. […]

HEK293T cells [2] = assay: Screen of 48 3×TAPE constructs: efficiency and sequential error rate; conditions: 48 tested tapes
Method: In each of these 48 constructs, a 3×TAPE region was accompanied by a pegRNA-expressing cassette designed to target it with a 4-6 bp insertion (16 possible 2-bp barcodes followed by a 2-4 bp key sequence). HEK293T cells were transiently transfected with PE2-encoding plasmid and a pool of 48 pegRNA-by-3×TAPE constructs and harvested them after four days. The 3×TAPE region was PCR-amplified from genomic DNA and sequenced.
Two quantities were calculated for each 3×TAPE array: (1) efficiency, calculated by summing all edited reads and dividing by the total number of reads; and (2) sequential error rate, calculated by summing all edited reads inconsistent with sequential, directional editing and dividing by the total number of edited reads (FIG. 7B). […] Indeed, across the full experiment, a longer key sequence was associated with a lower sequential error rate (FIG. 7C). […] Performance characteristics were highly consistent when the experiment was repeated with integration rather than transient transfection of the constructs (FIG. 7E).

[3] = system: PE2(+) 3N-TAPE-1-pegRNA(+) HEK293T; assay: Editing and recovery of 12× and 20×TAPE-1 arrays, 40 days, PacBio sequencing; conditions: 40 days culture
Text: To evaluate the extent to which such issues might be limiting in practice, a synthetic minisatellite in the form of 12 or 20 repeats of the 14-bp TAPE-1 monomer was generated. 12×TAPE-1 was synthesised as single-stranded DNA (IDT) and 20×TAPE-1 as a plasmid (GenScript). PCR amplicons of each array were cloned into the piggyBAC vector via Gibson assembly. Of note, cloned constructs were used “as is”, even though it is possible that some degree of variation in repeat number was already present (FIG. 11A-11B). […] PCR amplification of TAPE-1 was followed by standard library construction and sequencing on the Pacific Bioscience Sequel platform to obtain circular consensus sequencing (CCS) reads. […]
CCS reads were grouped within each replicate based on a degenerate 8-bp barcode (TargetBC), as these presumably derived from the same integration. On average, each TargetBC group had 3.1±3.4 and 3.8±5.7 reads for ˜ 12×TAPE-1 and ˜20×TAPE-1, respectively.
For long-read amplicon sequencing library preparation, a two-step PCR protocol was used: the first PCR reaction (KAPA Robust polymerase) included 1.5 uL of cell lysate, 0.04 to 0.4 uM of forward and reverse primers in a final reaction volume of 25 μL. […] After the first PCR step, products were assessed on 6% TBE-gel and purified using 0.6×AMPure (Beckman Coulter) and added to the second PCR reaction that appended PacBio sample indexes. […]

Molecule	Editing rate of the first TAPE-1 monomer (HEK293T cells [1]) [%]	Editing rates of the second or third monomers, conditional on preceding monomers already edited (HEK293T cells [1]) [%]	Fifth sites edited (mean) (iPE2(+) HEK293T) [%]	First sites of active arrays edited (mean) (iPE2(+) HEK293T) [%]	Sequential error rate (in words) (HEK293T cells [2])	Edits per array [3] [edits]	Repeats of TAPE-1 monomers recovered (average) [3] [repeats]
TAPE-1: DNA Tape: 3-bp key GGA and tandem array of 14-bp monomer TGATGGTGAGCACG, from HEK3; SEQ ID NO: 2 (DNA GGATGATGGTGAGCACGTGATGGTGAGCACG; listed as DNA, chemistry not fully specified; the letters are possibly those of the target site)	~6	~20	19.7	96.8	one of the lowest sequential error rates among the 48 tested tapes		
B1						4.5±1.3	8.4±3.3
